The target of test [1] is αvβ1 (Homo sapiens, UniProt P05556+P06756). As to the kind of experiment: Solid Phase Integrin αvβ1 Assay. In kind it is binding. On the procedure: (§1) The compounds exemplified in this document were tested for their ability to inhibit αvβ1 and αvβ6 in below described solid phase integrin assays.
Solid Phase Integrin αvβ1 Assay
96-well microtiter plates (4 HBX Immulon; Thermo Fisher Scientific, Waltham, MA) were coated with 100 μL/well of 1 μg/mL recombinant TGFb1-LAP in TBS at 4° C., overnight. The coating solution was removed, and plates were blocked with 200 μL/well of blocking and binding buffer (2% BSA/TBST, 1 mM MnCl2) at room temperature for 1 hr. Blocking buffer was removed and 50 μL of binding buffer and testing compounds were added. 50 μL of diluted αvβ1 (0.2 ug/mL in binding buffer) was added to wells (100 μL/well total) for and plates incubated for 90 min at room temperature. Wells were washed thrice with washing buffer (TBS, 0.05% Tween, 1 mM MnCl2) and plates were incubated with 100 μL/well of a 1:12500 dilution of streptavidin-horseradish peroxidase conjugate (Thermo Fisher Scientific) in binding buffer for 20 min at room temperature. Bound protein was detected using the substrate TMB. The IC50 values for testing compounds were calculated by Levenberg-Marquardt four parameter fitting logistics.

For test [2], the target named is αvβ6 (Homo sapiens, UniProt P06756+P18564). As to the kind of experiment: Solid Phase Integrin αvβ6 Assay. In kind it is binding. On the procedure:
as §1
Solid Phase Integrin αvβ6 Assay
96-well microtiter plates (4 HBX Immulon; Thermo Fisher Scientific, Waltham, MA) were coated with 100 μL/well of 1 μg/mL recombinant TGFb1-LAP in TBS at 4° C., overnight. The coating solution was removed, and plates were blocked with 200 μL/well of blocking and binding buffer (2% BSA/TBST, 1 mM MnCl2) at room temperature for 1 hr. Blocking buffer was removed and 50 uL of binding buffer and testing compounds were added. 50 μL of diluted αvβ6 (0.2 μg/mL in binding buffer) was added to wells (100 uL/well total) and plates incubated for 1 hr at room temperature. Wells were washed thrice with washing buffer (TBS, 0.05% Tween, 1 mM MnCl2) and plates were incubated with 100 μL/well of a 1:12500) dilution of streptavidin-horseradish peroxidase conjugate (Thermo Fisher Scientific) in binding buffer for 20 min at room temperature. Bound protein was detected using the substrate TMB. The IC50 values for testing compounds were calculated by Levenberg-Marquardt four parameter fitting logistics.

Where a name gives a salt, the structure may show the parent alone.

Sequence of αvβ6 (P06756 31-992 limits assumed): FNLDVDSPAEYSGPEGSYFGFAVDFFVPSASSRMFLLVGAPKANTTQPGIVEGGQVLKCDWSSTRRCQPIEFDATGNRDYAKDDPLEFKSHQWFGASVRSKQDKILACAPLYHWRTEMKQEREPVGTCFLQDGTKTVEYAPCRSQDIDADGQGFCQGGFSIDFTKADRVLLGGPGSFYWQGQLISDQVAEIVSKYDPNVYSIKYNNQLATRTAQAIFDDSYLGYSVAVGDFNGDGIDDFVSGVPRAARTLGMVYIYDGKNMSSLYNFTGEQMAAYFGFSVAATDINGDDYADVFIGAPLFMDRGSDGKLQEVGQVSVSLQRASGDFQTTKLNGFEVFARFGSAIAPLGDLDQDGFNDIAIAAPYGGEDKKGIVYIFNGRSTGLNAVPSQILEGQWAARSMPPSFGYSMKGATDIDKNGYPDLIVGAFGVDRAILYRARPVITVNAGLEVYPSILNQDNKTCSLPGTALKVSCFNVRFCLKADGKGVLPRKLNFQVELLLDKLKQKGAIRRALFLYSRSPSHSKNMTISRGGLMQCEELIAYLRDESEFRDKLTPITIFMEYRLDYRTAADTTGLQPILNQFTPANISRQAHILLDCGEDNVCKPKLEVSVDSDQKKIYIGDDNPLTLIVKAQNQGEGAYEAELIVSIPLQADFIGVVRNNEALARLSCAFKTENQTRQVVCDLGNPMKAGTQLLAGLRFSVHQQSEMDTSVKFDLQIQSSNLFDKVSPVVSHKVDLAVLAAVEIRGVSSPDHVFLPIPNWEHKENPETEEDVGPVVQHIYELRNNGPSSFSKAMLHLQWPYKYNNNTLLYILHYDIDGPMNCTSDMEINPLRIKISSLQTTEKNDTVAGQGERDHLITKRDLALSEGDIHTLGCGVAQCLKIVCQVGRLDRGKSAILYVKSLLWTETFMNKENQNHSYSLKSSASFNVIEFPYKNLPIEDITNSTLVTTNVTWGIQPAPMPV
Sequence of αvβ6 (P18564 22-707 limits assumed): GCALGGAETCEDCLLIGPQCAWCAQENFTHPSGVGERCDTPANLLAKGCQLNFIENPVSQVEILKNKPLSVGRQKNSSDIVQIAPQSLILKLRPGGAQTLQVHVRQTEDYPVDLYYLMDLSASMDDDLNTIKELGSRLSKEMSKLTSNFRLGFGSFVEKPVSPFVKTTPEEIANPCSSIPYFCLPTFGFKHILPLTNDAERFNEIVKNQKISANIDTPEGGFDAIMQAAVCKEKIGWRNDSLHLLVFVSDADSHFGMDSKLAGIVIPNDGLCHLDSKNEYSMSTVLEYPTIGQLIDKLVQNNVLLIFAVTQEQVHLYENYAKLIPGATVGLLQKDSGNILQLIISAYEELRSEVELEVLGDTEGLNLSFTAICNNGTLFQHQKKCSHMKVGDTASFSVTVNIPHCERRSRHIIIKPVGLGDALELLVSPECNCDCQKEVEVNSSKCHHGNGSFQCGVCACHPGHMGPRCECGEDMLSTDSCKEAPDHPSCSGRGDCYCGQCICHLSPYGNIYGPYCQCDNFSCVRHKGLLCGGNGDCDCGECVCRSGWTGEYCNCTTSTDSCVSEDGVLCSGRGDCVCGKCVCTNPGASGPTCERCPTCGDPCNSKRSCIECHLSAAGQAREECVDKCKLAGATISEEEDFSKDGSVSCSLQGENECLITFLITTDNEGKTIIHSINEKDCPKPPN
Sequence of αvβ1 (P06756 31-992 limits assumed): as the sequence (P06756 31-992 limits assumed) above
Sequence of αvβ1 (P05556 21-728 limits assumed): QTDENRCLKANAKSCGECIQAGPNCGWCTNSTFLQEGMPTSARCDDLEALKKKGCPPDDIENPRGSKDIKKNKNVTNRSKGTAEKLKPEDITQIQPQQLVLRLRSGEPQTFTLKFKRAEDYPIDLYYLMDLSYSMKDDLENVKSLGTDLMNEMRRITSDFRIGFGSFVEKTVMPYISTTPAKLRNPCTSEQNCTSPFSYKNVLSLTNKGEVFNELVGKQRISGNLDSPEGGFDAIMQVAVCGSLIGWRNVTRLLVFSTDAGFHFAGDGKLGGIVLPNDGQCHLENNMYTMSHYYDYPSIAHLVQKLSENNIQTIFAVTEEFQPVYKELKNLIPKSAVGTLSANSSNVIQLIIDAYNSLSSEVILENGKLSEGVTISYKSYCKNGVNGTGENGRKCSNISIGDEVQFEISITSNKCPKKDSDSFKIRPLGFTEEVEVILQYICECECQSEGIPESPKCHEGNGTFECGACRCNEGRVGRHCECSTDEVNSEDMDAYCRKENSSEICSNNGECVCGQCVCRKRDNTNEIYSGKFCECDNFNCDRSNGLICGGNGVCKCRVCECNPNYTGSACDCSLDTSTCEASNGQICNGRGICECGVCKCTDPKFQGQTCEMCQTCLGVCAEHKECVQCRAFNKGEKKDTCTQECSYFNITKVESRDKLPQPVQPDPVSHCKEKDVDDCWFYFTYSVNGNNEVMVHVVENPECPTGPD

What is called IC50 is the concentration at which inhibition is half-maximal. For the molecule `O=C(O)C[C@H](CO[C@@H]1CCCN(CCCc2ccc3c(n2)NCCC3)C1)c1cccc(N2CCCC2=O)c1` [Compound 482], the IC50 in test [1] and in test [2] was less than 100 nM throughout. In turn, `O=C(NC[C@@H](C(=O)O)c1ccc(-c2ccccc2)cc1)[C@@H]1CCCN(CCCc2ccc3c(n2)NCCC3)C1` [Compound 343] showed a half-maximal inhibitory concentration (IC50) in test [2] of less than 100 nM. Regarding `O=C(O)C[C@H](CO[C@@H]1CCCN(Cc2ccc3c(n2)NCCC3)C1)c1ccccc1` [Compound 356], the IC50 was 100 to 1000 nM in test [1] and more than 1000 nM in test [2].

For the molecule `O=C(CC[C@@H](NC(=O)C12CCC(CC1)CC2)C(=O)O)N[C@H]1CCN(CCCCc2ccc3c(n2)NCCC3)C1` [Compound 431], the IC50 in test [1] and in test [2] was more than 1000 nM each time. On to `O=C(N[C@@H](CNC(=O)[C@@H]1CCCN(CCCc2ccc3c(n2)NCCC3)C1)C(=O)O)C1CCC(F)(F)CC1` [Compound 366], for which the IC50 in test [1] and in test [2] was less than 100 nM in each case. Take `O=C(O)C[C@@H](O[C@@H]1CCCN(Cc2ccc3c(n2)NCCC3)C1)c1ccccc1` [Compound 390]: the IC50 in test [1] and in test [2] was more than 1000 nM in each case. `O=C(O)C[C@H](NC(=O)[C@H]1CCCN(CCCCc2ccc3c(n2)NCCC3)C1)c1ccccc1` [Compound 287, (S)-3-phenyl-3-((S)-1-(4-(5,6,7,8-tetrahydro-1,8-naphthyridin-2-yl)butyl)piperidine-3-carboxamido)propanoic acid]: the IC50 in test [1] and in test [2] was more than 1000 nM in each case. Turning to `O=C(NC[C@H](C(=O)O)c1ccc2c(c1)CCC2)[C@@H]1CCCN(CCCc2ccc3c(n2)NCCC3)C1` [Compound 254-A, 2-(2,3-dihydro-1H-inden-5-yl)-3-((R)-1-(3-(5,6,7,8-tetrahydro-1,8-naphthyridin-2-yl)propyl)piperidine-3-carboxamido)propanoic acid], the results for the concentration for half-maximal inhibition (IC50) in test [1] and in test [2] were less than 100 nM and 100 to 1000 nM, respectively.

In the case of `O=C(O)[C@@H](CCO[C@@H]1CCCN(CCCc2ccc3c(n2)NCCC3)C1)Nc1ncnc2ccsc12` [Compound 511], the 50% inhibitory concentration (IC50) in test [1] and in test [2] was less than 100 nM in each case. Consider `O=C(CC[C@@H](NC(=O)[C@@H]1CCCN1S(=O)(=O)c1ccccc1)C(=O)O)N[C@H]1CCN(C(=O)CCCc2ccc3c(n2)NCCC3)C1` [Compound 441], for which the 50% inhibitory concentration (IC50) in test [1] is less than 100 nM; in test [2], more than 1000 nM. Regarding `O=C(NC[C@@H](C(=O)O)c1cnc2[nH]ccc2c1)[C@@H]1CCCN(CCCc2ccc3c(n2)NCCC3)C1` [Compound 324], the concentration for half-maximal inhibition (IC50) in test [1] was less than 100 nM; in test [2], more than 1000 nM. `O=C(NC[C@H](C(=O)O)c1cccc2c1cnn2CC1CC1)[C@@H]1CCCN(CCCc2ccc3c(n2)NCCC3)C1` [Compound 315]: the IC50 in test [1] and in test [2] was less than 100 nM each time. As to `O=C(NC[C@H](C(=O)O)c1cccc(-c2ccccc2C(F)(F)F)c1)[C@@H]1CCCN(CCCc2ccc3c(n2)NCCC3)C1` [Compound 621], the concentration for half-maximal inhibition (IC50) in test [1] and in test [2] was less than 100 nM throughout. Regarding `CNC(=O)[C@@H]1CN(C(=O)CCCc2ccc3c(c2)NCCC3)C[C@H]1NC(=O)CC(CC(=O)O)c1ccccc1` (stereo partly drawn) [Compound 606], the half-maximal inhibitory concentration (IC50) in test [1] was less than 100 nM; in test [2], 100 to 1000 nM. In the same order, the values of `O=C(NC[C@H](C(=O)O)c1ccccc1)[C@@H]1CCCN(CCCc2ccc3c(n2)NCCC3)C1` [Compound 247, (R)-2-phenyl-3-((R)-1-(3-(5,6,7,8-tetrahydro-1,8-naphthyridin-2-yl)propyl)piperidine-3-carboxamido)propanoic acid] are less than 100 nM and less than 100 nM.

With `O=C(O)[C@@](O)(CO[C@@H]1CCCN(Cc2ccc3c(n2)NCCC3)C1)c1ccccc1` [Compound 477], the concentration for half-maximal inhibition (IC50) in test [1] and in test [2] was more than 1000 nM throughout.

On to `O=C(NC[C@H](C(=O)O)c1cccc(C(F)(F)F)c1)[C@@H]1CCCN(CCCc2ccc3c(n2)NCCC3)C1` [Compound 252-B, 3-((R)-1-(3-(5,6,7,8-tetrahydro-1,8-naphthyridin-2-yl)propyl)piperidine-3-carboxamido)-2-(3-(trifluoromethyl)phenyl)propanoic acid], for which the IC50 in test [1] is more than 1000 nM; in test [2], less than 100 nM.

Regarding `O=C(O)CC(NC(=O)[C@@H]1CCCN(CCCc2ccc3c(n2)NCCC3)C1)c1cc(C(F)(F)F)cc(C(F)(F)F)c1` (stereo partly drawn) [Compound 223, 3-(3,5-bis(trifluoromethyl)phenyl)-3-((R)-1-(3-(5,6,7,8-tetrahydro-1,8-naphthyridin-2-yl)propyl)piperidine-3-carboxamido)propanoic acid formic acid], the 50% inhibitory concentration (IC50) in test [1] and in test [2] was less than 100 nM throughout.

Regarding `O=C(CC[C@H](NC(=O)[C@@H]1CCCN1S(=O)(=O)c1ccccc1)C(=O)O)N[C@H]1CCN(CCCCc2ccc3c(n2)NCCC3)C1` [Compound 435], the figures for the IC50 in test [1] and in test [2] were less than 100 nM and 100 to 1000 nM, respectively. The like results for `O=C(N[C@@H](CNC(=O)[C@@H]1CCCN(CCCc2ccc3c(n2)NCCC3)C1)C(=O)O)C1CCCCC1` [Compound 262, (S)-2-(cyclohexanecarboxamido)-3-((R)-1-(3-(5,6,7,8-tetrahydro-1,8-naphthyridin-2-yl)propyl)piperidine-3-carboxamido)propanoic acid hydrochloride] were, in that order, less than 100 nM and less than 100 nM. In the case of `CC1(C)CCCN(c2cccc([C@H](CNC(=O)[C@@H]3CCCN(CCCc4ccc5c(n4)NCCC5)C3)C(=O)O)c2)C1` [Compound 598], in test [2], the IC50 is more than 1000 nM. The same measure, in the same setting: then `O=C(Cc1ccccc1Cl)N[C@@H](CNC(=O)[C@@H]1CCCN(CCCc2ccc3c(n2)NCCC3)C1)C(=O)O` [Compound 545], with less than 100 nM; and `O=C(NC[C@H](Nc1cc(-c2ccccc2)ncn1)C(=O)O)[C@@H]1CCCN(CCCc2ccc3c(n2)NCCC3)C1` [Compound 564], with less than 100 nM. `CC(C)CNC(=O)[C@@H]1CCCC[C@H]1C(=O)N[C@@H](CNC(=O)[C@@H]1CCCN(CCCc2ccc3c(n2)NCCC3)C1)C(=O)O` [Compound 526] showed an IC50 in test [1] of less than 100 nM. For `CC1(C)CCN(c2cccc([C@H](CNC(=O)[C@@H]3CCCN(CCCc4ccc5c(n4)NCCC5)C3)C(=O)O)c2)CC1` [Compound 600], in test [2], the IC50 was 100 to 1000 nM. Still for that read-out and setting: the value for `O=C(NC[C@H](Nc1ccccc1C1CC(F)(F)C1)C(=O)O)[C@@H]1CCCN(CCCc2ccc3c(n2)NCCC3)C1` [Compound 590] was less than 100 nM; that for `CC1(C)CN(c2cccc([C@H](CNC(=O)[C@@H]3CCCN(CCCc4ccc5c(n4)NCCC5)C3)C(=O)O)c2)CCO1` [Compound 594] was 100 to 1000 nM; that for `CC1(C)COCCN1c1cccc([C@H](CNC(=O)[C@@H]2CCCN(CCCc3ccc4c(n3)NCCC4)C2)C(=O)O)c1` [Compound 596] was less than 100 nM.

Regarding `O=C(NC[C@H](Nc1cccnc1C1CC(F)(F)C1)C(=O)O)[C@@H]1CCCN(CCCc2ccc3c(n2)NCCC3)C1` [Compound 591], the concentration for half-maximal inhibition (IC50) in test [2] is less than 100 nM. In test [2], `O=C(NC[C@H](Nc1cccc(C2CC(F)(F)C2)c1)C(=O)O)[C@@H]1CCCN(CCCc2ccc3c(n2)NCCC3)C1` [Compound 592] had an IC50 of less than 100 nM.

As to `O=C(O)C[C@H](NC(=O)[C@@H]1CCCN(CCCc2ccc3c(n2)NCCC3)C1)c1cc(F)cc(C2CC2)c1` [Compound 558], the IC50 in test [1] is less than 100 nM. The molecule `C[C@@H]1CN(c2cccc([C@H](CNC(=O)[C@@H]3CCCN(CCCc4ccc5c(n4)NCCC5)C3)C(=O)O)c2)C[C@H](C)O1` [Compound 602] came in with an IC50 in test [2] of 100 to 1000 nM. The same measure, in the same setting: the value for `O=C(N[C@@H](CNC(=O)[C@@H]1CCCN(CCCc2ccc3c(n2)NCCC3)C1)C(=O)O)c1ccc2c(c1)CCC2` [Compound 548] was less than 100 nM. `O=C(O)C[C@H](NC(=O)[C@@H]1CCCN(CCCc2ccc3c(n2)NCCC3)C1)c1cccc(-n2cccn2)c1` [Compound 537] displayed a concentration for half-maximal inhibition (IC50) in test [1] of less than 100 nM.

In the case of `CC1(C)CN(c2cccc([C@@H](NC(=O)[C@@H]3CCCN(CCCc4ccc5c(n4)NCCC5)C3)C(F)(F)C(=O)O)c2)CCO1` [Compound 300, (R)-3-(3-(2,2-dimethylmorpholino)phenyl)-2,2-difluoro-3-((R)-1-(3-(5,6,7,8-tetrahydro-1,8-naphthyridin-2-yl)propyl)piperidine-3-carboxamido)propanoic acid], in test [1], the IC50 is less than 100 nM. `O=C(N[C@@H](CNC(=O)[C@@H]1CCCN(CCCc2ccc3c(n2)NCCC3)C1)C(=O)O)c1cccc(C2CC2)c1` [Compound 370]: the IC50 in test [2] was less than 100 nM. Same read-out and setting: the value for `O=C(N[C@@H](CNC(=O)[C@@H]1CCCN(CCCc2ccc3c(n2)NCCC3)C1)C(=O)O)c1c(F)cccc1F` [Compound 310] was 100 to 1000 nM; that for `O=C(Cc1ccccc1)N[C@@H](CNC(=O)[C@@H]1CCCN(CCCc2ccc3c(n2)NCCC3)C1)C(=O)O` [Compound 550] was less than 100 nM.
